Laboratory results: patent publication US20250041317A1, “NEUROACTIVE STEROID FOR THE TREATMENT OF HUNTINGTON'S DISEASE” (SAGE THERAPEUTICS, INC., priority 2021, published 2025)

Key:
[1] = tested on: Patients with HD; experiment: Tests of executive functioning (Cogstate Battery); assay type: in vivo, human; settings: 1 mg, FIGS. 1-4
From the text: (§1) Additional objectives included an assessment of changes in subject performance on cognitive tasks.
(§2) Cogstate Battery was used to assess cognitive functioning, such as attention, working memory, information processing speed, executive function, and motor skills, and consists of the Stop Signal Reaction Test (STOP), Detection Task (DET), Identification Task (IDN), One Back Learning Task (ONB), Two Back Learning Task (TWOB), and Groton Maze Learning Test (GML).
(§3) The endpoints for each Cogstate Battery tests are change from baseline scores at each post-baseline assessment.

[2] = tested on: subjects with early manifest Huntington's disease; experiment: Cogstate Two Back Test (TWOB), working memory; assay type: in vivo, human; settings: HD Subjects (Part B), 1 mg
From the text: (§4) Sentinel dosing of subjects was employed for Cohort 3.
as §2, §3
(§5) Mean change from baseline scores at all post-baseline assessments were analyzed using mixed-effect repeated measure model (MMRM); with dose, visit, interaction between dose and visit as fixed effects, baseline as a covariate and subject as random effect. Unstructured covariance structure was used to model the variance-covariance matrix of the repeated measurements. If estimation issues arose during construction of covariance structure, compound symmetry was used in place of unstructured. The least square (LS) means differences between dose groups and placebo at each post baseline timepoint were estimated along with 95% confidence intervals.

[3] = tested on: subjects with early manifest Huntington's disease; experiment: Cogstate Groton Maze Learning Test (GML), executive function; assay type: in vivo, human; settings: HD Subjects (Part B), 1 mg, all timepoints except for day 4
From the text: as §4, §2, §3, §5

[4] = tested on: Patients with Huntington's Disease; experiment: Assessment of psychomotor speed (Psychomotor Vigilance Task Test, FIG. 5); assay type: in vivo, human; settings: patients with HD, 1 mg
From the text: FIG. 5 depicts performance measured using the Psychomotor Vigilance Task Test in Patients with Huntington's Disease and Healthy Participants. Z-Transformed Change from Baseline to Day 14 (Mean±SE) is depicted.
as §1

[5] = Phase 1 MAD study: safety and tolerability of Compound 1 Oral Solution
From the text: Subjects were assigned sequentially to one of 3 cohorts. […] Cohorts 1 and 2 were divided into 4 sub-groups of 3 subjects. Each sub-group in Part A started dosing on Day 1 over the course of 4 consecutive days, with the remaining dosing days overlapping in a staggered fashion. A maximum of 3 Part A subjects per calendar day per site will begin treatment at Day 1.
The Screening Period began with the signing of the informed consent form (ICF) at the Screening Visit. An optional genetic sample was collected during screening. On Day −2 (Part A) or Day −1 (Part B), qualified subjects were admitted to the unit. Subjects were discharged from the unit on Day 17 after completion of all assessments, provided that the Investigator was satisfied that it is safe for the subject to be discharged. In total, the inpatient stay for Part A subjects was approximately 19 days, and approximately 18 days for Part B subjects. Subjects returned for a Follow-up Visit on Day 21 (±2 days), approximately one week after the end of treatment.

[6] = healthy adults (0.5 mg or 1.0 mg) and subjects with early manifest HD, multiple oral doses

C[C@H](CC[C@](C)(O)C(F)(F)F)[C@H]1CC[C@H]2[C@@H]3CC=C4C[C@@](C)(O)CC[C@]4(C)[C@H]3CC[C@]12C [Compound 1]
Change from baseline on tests of executive functioning [1]: improvements from baseline | Performance on the two-back test vs baseline, statistical significance ([2]; Days 8-14, threshold p<0.05): significant improvement compared to baseline | Performance on the two-back test vs baseline ([2]; all timepoints after baseline): improvement in performance | Performance in the GML test vs baseline [3]: improvement | Change from baseline on assessment of psychomotor speed [4]: No changes from baseline were observed | TEAEs in Part B ([5]; Part B, subjects with HD): No TEAEs were reported | Deaths [5, 6]: No deaths were reported | Serious AEs [5, 6]: No serious AEs were reported | TEAEs leading to study withdrawal or treatment discontinuation [5, 6]: No TEAEs leading to study withdrawal or treatment discontinuation were reported | Suicidal ideation or suicidal behavior compared to baseline, C-SSRS ([5]; measured by C-SSRS): no signals for increased suicidal ideation or suicidal behavior
